Experimental data as given in patent US8134015B2, “Compound inhibiting in vivo phosphorous transport and medicine containing the same” (Kyowa Hakko Kirin Co., Ltd., priority 2003, dated 2012).

What follows are molecules tested against T1, rat NaPi-2b (Rattus norvegicus, UniProt Q9JJ09) (assay: Sodium-dependent phosphate uptake of Xenopus oocytes which expressed NaPi-2b (32P)). Details: Xenopus oocytes expressing rat NaPi-2b, 32P radioactive phosphorus; read-out: IC50 (phosphate uptake inhibitory activity).
T1 construct: expressed in transfected cells; host or cells: Xenopus oocytes injected with cRNA
T1 sequence (Q9JJ09 1-695): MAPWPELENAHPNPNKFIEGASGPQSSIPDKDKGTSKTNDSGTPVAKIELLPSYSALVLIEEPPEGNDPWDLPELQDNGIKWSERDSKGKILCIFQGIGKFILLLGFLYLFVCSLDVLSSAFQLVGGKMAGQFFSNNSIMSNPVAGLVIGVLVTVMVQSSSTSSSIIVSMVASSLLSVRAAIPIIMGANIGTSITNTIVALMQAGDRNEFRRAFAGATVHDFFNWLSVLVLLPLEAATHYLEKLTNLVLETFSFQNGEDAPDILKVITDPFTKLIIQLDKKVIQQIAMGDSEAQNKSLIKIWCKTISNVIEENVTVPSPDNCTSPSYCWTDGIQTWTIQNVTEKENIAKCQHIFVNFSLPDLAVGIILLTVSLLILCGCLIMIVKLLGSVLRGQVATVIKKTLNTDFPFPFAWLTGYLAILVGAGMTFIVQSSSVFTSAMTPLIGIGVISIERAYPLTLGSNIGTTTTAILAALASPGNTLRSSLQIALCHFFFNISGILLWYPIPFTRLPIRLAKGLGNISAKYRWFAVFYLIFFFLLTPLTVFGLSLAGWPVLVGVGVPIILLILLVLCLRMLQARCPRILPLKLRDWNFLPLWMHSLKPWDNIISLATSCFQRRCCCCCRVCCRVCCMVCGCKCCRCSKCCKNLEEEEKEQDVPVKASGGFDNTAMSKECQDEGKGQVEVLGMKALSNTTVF
Type: cell-based
How it was run: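 Percent inhibition at 300 μM and 100 μM comes from the same inhibition curve of 32P uptake. Assay used oocytes expressing rat NaPi-2b after 2 days of culture.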

**Q.** For CCc1ccc(C(=O)Nc2ccc(Br)cc2C(=O)N/N=C/c2ccc(C)c(C)c2)cc1 [Compound 182, N-[4-Bromo-2-(3,4-dimethyl-benzylidene-hydrazinocarbonyl)-phenyl]-4-ethyl-benzamide], which IC50 is on record?
**A.** 10.2 µM

**Q.** For Cc1ccc(/C=N/NC(=O)c2cc(Br)ccc2NC(=O)c2ccc(CNCCN3CCOCC3)cc2)cc1C [Compound 281, N-[4-Bromo-2-(3,4-dimethyl-benzylidene-hydrazinocarbonyl)-phenyl]-4-[(2-morpholin-4-yl-ethylamino)-methyl]-benzamide], which IC50 is on record?
**A.** 4.6 µM

**Q.** How did the IC50 turn out when COc1ccc(C(=O)Nc2ccc(Br)cc2C(=O)NNCc2ccc(C)cc2)cc1OC [Compound 367, N-{4-Bromo-2-[N′-(4-methyl-benzyl)-hydrazinocarbonyl]-phenyl}-3,4-dimethoxy-benzamide] was run?
**A.** 6.88 µM

**Q.** How did the IC50 turn out when Cc1ccc(/C=N/NC(=O)c2cc(Cl)ccc2NC(=O)c2cccc(CSc3nnnn3CCN(C)C)c2)cc1 [Compound 465, N-[4-Chloro-2-(4-methyl-benzylidene-hydrazinocarbonyl)-phenyl]-3-[1-(2-dimethylamino-ethyl)-1H-tetrazol-5-ylsulfanylmethyl]-benzamide] was run?
**A.** 7.43 µM

**Q.** With COc1ccc(C(=O)Nc2ccc(OCCN(C)C)cc2C(=O)N/N=C/c2ccc(F)cc2)cc1OC [Compound 139, N-[4-(2-Dimethylamino-ethoxy-)-2-(4-fluoro-benzylidene-hydrazinocarbonyl)-phenyl]-3,4-dimethoxy-benzamide] as the molecule, how does the IC50 read?
**A.** 55.5 µM

**Q.** With CCN(CC)CCN(C)Cc1cccc(C(=O)Nc2ccc(I)cc2C(=O)N/N=C/c2ccc(OC)cc2)c1 [Compound 479, 3-{[(2-Diethylamino-ethyl)-methyl-amino]-methyl}-N-[4-iodo-2-(4-methoxy-benzylidene-hydrazinocarbonyl)-phenyl]-benzamide] as the molecule, how does the IC50 read?
**A.** < 3 µM

**Q.** How did the IC50 turn out when CCN(CC)CCN(C)Cc1cccc(C(=O)Nc2ccc(Cl)cc2C(=O)N/N=C/c2ccc(OCCCN(C)C)cc2)c1 [Compound 999, N-{4-Chloro-2-[4-(3-dimethylamino-propoxy)-benzylidene-hydrazinocarbonyl]-phenyl}-3-{[(2-diethylamino-ethyl)-methyl-amino]-methyl}-benzamide] was run?
**A.** 58.2 µM

**Q.** Which IC50 does the source give for O=C(Nc1ccc(Br)cc1C(=O)N/N=C/c1cccc(F)c1)c1cccc(CSc2ccncc2)c1 [Compound 195, N-[4-Bromo-2-(3-fluoro-benzylidene-hydrazinocarbonyl)-phenyl]-3-(pyridin-4-ylsulfanylmethyl)-benzamide] here?
**A.** 0.98 µM

**Q.** How did the IC50 turn out when CCN(CC)CCN(Cc1cccc(C(=O)Nc2sc3c(c2C(=O)N/N=C/c2ccc(F)cc2)CCCC3)c1)C(C)=O [Compound 654, 3-{[Acetyl-(2-diethylamino-ethyl)-amino]-methyl}-N-[3-(4-fluoro-benzylidene-hydrazinocarbonyl)-4,5,6,7-tetrahydro-benzo[b]-thiophen-2-yl]-benzamide] was run?
**A.** 2.03 µM

**Q.** How did the IC50 turn out when O=C(Nc1ccc(N2CCC(O)CC2)cc1C(=O)N/N=C/c1ccc(Cl)c(C(F)(F)F)c1)c1cccc(CSCCO)c1 [Compound 1062, N-[2-(4-Chloro-3-trifluoromethyl-benzylidene-hydrazinocarbonyl)-4-(4-hydroxy-piperidin-1-yl)-phenyl]-3-(2-hydroxy-ethylsulfanylmethyl)-benzamide] was run?
**A.** 6.76 µM

**Q.** Cc1ccc(/C=N/NC(=O)c2cc(Br)ccc2NC(=O)c2ccc(CN3CCN(CC(=O)N4CCOCC4)CC3)cc2)cc1 [Compound 728, N-[4-Bromo-2-(4-methyl-benzylidene-hydrazinocarbonyl)-phenyl]-4-[4-(2-morpholin-4-yl-2-oxo-ethyl)-piperazin-1-ylmethyl]-benzamide] was tested. Which IC50 did it give?
**A.** 20.3 µM

**Q.** O=C(Nc1ccc(Cl)cc1C(=O)N/N=C/c1ccc(F)cc1)c1cccc(CSc2nc[nH]n2)c1 [Compound 390, N-[4-Chloro-2-(4-fluoro-benzylidene-hydrazinocarbonyl)-phenyl]-3-(1H-[1,2,4]triazol-3-ylsulfanylmethyl)-benzamide] was tested. Which IC50 did it give?
**A.** 0.45 µM

**Q.** For COc1ccc(C(=O)Nc2ccc(Br)cc2C(=O)N/N=C/c2cccc(C)c2)cc1OC [Compound 31, N-[4-Bromo-2-(3-methyl-benzylidene-hydrazinocarbonyl)-phenyl]-3,4-dimethoxy-benzamide], which IC50 is on record?
**A.** 0.58 µM

**Q.** For COc1ccc(C(=O)Nc2ccc(Br)cc2C(=O)N/N=C/c2ccc(O)cc2)cc1OC [Compound 64, N-[4-Bromo-2-(4-hydroxy-benzylidene-hydrazinocarbonyl)-phenyl]-3,4-dimethoxy-benzamide], which IC50 is on record?
**A.** 3.77 µM

**Q.** For O=C(Nc1ccccc1C(=O)N/N=C/c1ccc(F)cc1)c1cccc(OC(F)(F)F)c1 [Compound 121], which IC50 is on record?
**A.** 4.06 µM

**Q.** How did the IC50 turn out when COc1ccc(/C=N/NC(=O)c2c(C)csc2NC(=O)c2cccc(CN3CCC(CO)CC3)c2)cc1 [Compound 604, 3-(4-Hydroxymethyl-piperidin-1-ylmethyl)-N-[3-(4-methoxy-benzylidene-hydrazinocarbonyl)-4-methyl-thiophen-2-yl]-benzamide] was run?
**A.** 9.23 µM

**Q.** With O=C(Nc1ccc(Br)cc1C(=O)N/N=C/c1cccc(F)c1)c1ccc(CN2CCN(CCO)CC2)cc1 [Compound 320, N-[4-Bromo-2-(3-fluoro-benzylidene-hydrazinocarbonyl)-phenyl]-4-[4-(2-hydroxy-ethyl)-piperazin-1-ylmethyl]-benzamide] as the molecule, how does the IC50 read?
**A.** 4.09 µM

**Q.** With CN1CCN(c2ccc(NC(=O)c3cccc(CSCCO)c3)c(C(=O)N/N=C/c3ccc(Cl)c(C(F)(F)F)c3)c2)CC1 [Compound 1072, N-[2-(4-Chloro-3-trifluoromethyl-benzylidene-hydrazinocarbonyl)-4-(4-methyl-piperazin-1-yl)-phenyl]-3-(2-hydroxy-ethylsulfanylmethyl)-benzamide] as the molecule, how does the IC50 read?
**A.** 3.88 µM

**Q.** Which IC50 does the source give for COc1ccc(/C=N/NC(=O)c2ccccc2NC(=O)c2ccc(OC)c(OC)c2)cc1Br [Compound 34, N-[2-(3-Bromo-4-methoxy-benzylidene-hydrazinocarbonyl)-phenyl]-3,4-dimethoxy-benzamide] here?
**A.** 1.5 µM

**Q.** With Cc1cccc(/C=N/NC(=O)c2cc(Br)ccc2NC(=O)c2ccc(CNCCN3CCOCC3)cc2)c1 [Compound 283, N-[4-Bromo-2-(3-methyl-benzylidene-hydrazinocarbonyl)-phenyl]-4-[(2-morpholin-4-yl-ethylamino)-methyl]-benzamide] as the molecule, how does the IC50 read?
**A.** 22.4 µM

**Q.** How did the IC50 turn out when COc1ccc(/C=N/NC(=O)c2cc(N3CCCCC3)ccc2NC(=O)c2cccc(CNCCN(CCO)CCO)c2)cc1 [Compound 915, 3-({2-[Bis-(2-hydroxy-ethyl)-amino]-ethylamino}-methyl)-N-[2-(4-methoxy-benzylidene-hydrazinocarbonyl)-4-piperidin-1-yl-phenyl]-benzamide] was run?
**A.** 8.15 µM

Same assay, conditions: phosphate uptake, oocytes expressing rat NaPi-2b; 300 μM, determined from inhibition curve

**Q.** Which inhibition at 300 µM does the source give for Cc1ccc(/C=N/NC(=O)c2cc(Br)ccc2NC(=O)c2ccc(CNCCCN(C)c3ccccc3)cc2)cc1 [Compound 758, N-[4-Bromo-2-(4-methyl-benzylidene-hydrazinocarbonyl)-phenyl]-4-{[3-(methyl-phenyl-amino)-propylamino]-methyl}-benzamide] here?
**A.** 58.2%

**Q.** For COc1ccc(C(=O)Nc2ccccc2C(=O)N/N=C/c2ccc([N+](=O)[O-])cc2)cc1OC [Compound 240, 3,4-Dimethoxy-N-[2-(4-nitro-benzylidene-hydrazinocarbonyl)-phenyl]-benzamide], which inhibition at 300 µM is on record?
**A.** 37.9%

**Q.** How did the inhibition at 300 µM turn out when COc1ccc(C(=O)Nc2sc(C)cc2C(=O)N/N=C/c2ccc(Cl)c(C(F)(F)F)c2)cc1OC [Compound 955, N-[3-(4-Chloro-3-trifluoromethyl-benzylidene-hydrazinocarbonyl)-5-methyl-thiophen-2-yl]-3,4-dimethoxy-benzamide] was run?
**A.** 57.7%
